Assay results from PMC7238232, “Acamprosate Is a Substrate of the Human Organic Anion Transporter (OAT) 1 without OAT3 Inhibitory Properties: Implications for Renal Acamprosate Secretion and Drug–Drug Interactions” (Pharmaceutics, 2020).
Where two headings read alike, the source gives them in different places.

Tests used:
OAT3 = target: T1, OAT3 (Homo sapiens, UniProt Q8TCC7); assay: Acamprosate intracellular uptake in HEK293-Flp-In OAT3 cells (LC/MS-MS); assay type: cell-based; conditions: 200 µM acamprosate; 10 min; Lab. 1
T1 sequence (Q8TCC7 1-542): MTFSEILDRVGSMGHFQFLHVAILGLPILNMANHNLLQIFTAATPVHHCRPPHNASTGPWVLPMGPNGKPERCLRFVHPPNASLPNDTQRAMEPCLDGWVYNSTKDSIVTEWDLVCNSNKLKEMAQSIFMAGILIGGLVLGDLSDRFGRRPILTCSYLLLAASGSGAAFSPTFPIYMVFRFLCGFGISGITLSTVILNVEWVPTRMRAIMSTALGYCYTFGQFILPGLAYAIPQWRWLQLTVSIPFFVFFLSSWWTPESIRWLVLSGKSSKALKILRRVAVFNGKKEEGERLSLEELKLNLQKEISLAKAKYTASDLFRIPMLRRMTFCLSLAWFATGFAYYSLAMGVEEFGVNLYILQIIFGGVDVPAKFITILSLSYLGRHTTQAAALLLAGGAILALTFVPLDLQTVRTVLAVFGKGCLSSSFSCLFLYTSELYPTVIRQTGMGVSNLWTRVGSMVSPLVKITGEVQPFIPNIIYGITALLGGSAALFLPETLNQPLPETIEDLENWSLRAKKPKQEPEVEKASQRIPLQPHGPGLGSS
Protocol: The experiments were done on cells cultured in 24-well plates in Lab. 1. For the time-dependent uptake, the experiment was initiated by replacing the incubation buffer with 200 µL prewarmed 200 µM solution of acamprosate in uptake buffer. The plates were incubated in an orbital plate shaker at 37 °C and 100 rpm for 5, 15, 30, 45, 60, or 90 min and experiments were stopped by washing with 3 × 500 µL ice-cold buffer. […] The plates were incubated in an orbital plate shaker (Incubating microplate shaker from VWR International AB, Stockholm, Sweden) at 37 °C and 100 rpm for 10 min (time point at which substrate uptake was within the linear range) and experiments were stopped by washing with 3 × 500 µL∙well^−1 ice-cold buffer. The cells were then lysed with 200 µL 50 nM warfarin in 60:40 acetonitrile (ACN):water (IS solution) and mixed thoroughly. The samples were moved to 96-well LC/MS-MS plates. The wells from the uptake experiment were rinsed again with 200 µL IS solution and the resulting volumes were added to the corresponding well on the same 96-well plate. […] The plates were covered with aluminum seals and centrifuged at 3500 rpm and 5 °C for 20 min and the amount of acamprosate in the supernatant was quantified by LC/MS-MS.
Acamprosate was quantified in Lab. […] Quantification was done by multiple reaction monitoring of parent and daughter ions. […]

[1] = cited from earlier work
PEPT1 = conditions: Caco-2 cells, preliminary data; cited from earlier work
PAT1 = conditions: Caco-2 cells, preliminary data; cited from earlier work
EAAT1 = conditions: Caco-2 cells, preliminary data; cited from earlier work
OATP2B1 = conditions: Caco-2 cells, preliminary data; cited from earlier work
HEK293-Flp-In mock cells = assay: Control uptake studies in HEK293-Flp-In mock cells
Protocol: All uptake experiments were performed on 24- or 96-well plates. Before the experiment initiation, the cells were incubated with either 500 or 200 µL∙well^−1 prewarmed buffer for 10 min at 37 °C in a microplate incubator (VWR International AB, Stockholm, Sweden), without shaking. […] The experiment was stopped by adding 200 µL∙well^−1 of ice-cold buffer and subsequent rinse three times with the same amount of buffer. […] A total of 50 µL of cell lysate from each well was transferred to 96-well Luma plates bottom coated with dry scintillant. Then, 2∙20 µL of each donor and three 50 µL blank samples were applied on the same plate. The dry plates were covered with transparent seals and analyzed using a TopCount NXT Microplate Scintillation and Luminescence Counter (Perkin Elmer, Waltham, MA, USA). The remaining 20 µL cell lysate was neutralized with 20 µL 1M HCl∙well^−1, samples were mixed thoroughly and the total protein content in all the wells was measured using a BCA protein assay kit, microplate method, and a Tecan Safire II fluorometer (Tecan Austria GmbH, Grödig, Austria). […] The total protein content was measured by using a BCA protein assay kit and a FLUOStar Omega fluorescence microplate reader (BMG Labtech, Ortenberg, Germany). The protein assay for the OAT3 and mock cell lines was performed in four independent wells of each cell line, seeded and treated in the same manner as the cells used in the uptake assay. For all the OAT1, OAT3, and mock isotope uptake studies, the radiolabelled tracer accumulation (pmol) in each well was calculated by first determining the activity of the isotope (DPM∙pmol^−1) from the radioactivity (DPM) of the donor sample divided by the theoretical isotope concentration (pmol), then dividing the total radioactivity in the well (DPM) to the specific activity of the isotope (DPM∙pmol^−1).

## CC(=O)NCCCS(=O)(=O)O [acamprosate, acetylhomotaurinate]
OAT3
  acamprosate uptake in OAT3 expressing cells compared to mock cells: similar
[1]; acamprosate, IV bolus, 333 mg
  Cmax: 153 ± 38 µM
[1]; acamprosate, IV bolus, 666 mg
  Cmax: 214 ± 10 µM
[1]; acamprosate, IV bolus, 710 mg
  Cmax: 230 ± 64 µM
[1]; acamprosate, IV bolus, 1420 mg
  Cmax: 486 ± 106 µM
[1]; acamprosate, IV bolus, 2130 mg
  Cmax: 768 ± 149 µM
[1]; acamprosate, all doses and routes of Table A1
  fu, fraction unbound in plasma: 1 [5]
[1]; acamprosate, oral solution, 333 mg
  Cmax: 1.8 ± 0.8 µM
[1]; acamprosate, oral solution, 666 mg
  Cmax: 4.3 ± 1.4 µM
[1]; acamprosate, oral solution, 1332 mg
  Cmax: 5 ± 1.7 µM
[1]; acamprosate, oral solution, 2664 mg
  Cmax: 8.6 ± 4.1 µM
[1]; acamprosate, oral tablet, 666 mg
  Cmax: 1.4 ± 1.1 µM
[1]; acamprosate, oral tablet, 1332 mg
  Cmax: 1.5 ± 0.1 µM
[1]; administered orally, humans
  plasma levels: 1 to 9 µM
[1]
  metabolism in humans: not metabolized
  share of the eliminated dose accounted for by renal clearance (CLR): > 95%
[1]; healthy adults
  renal clearance (CLR) of unbound acamprosate: 13.4 to 23.4 L/h
[1]; humans
  fu (plasma protein binding): 1
[1]; intravenous (bolus), doses of 333–2130 mg
  initial unbound plasma concentration (C0,u): 154 to 768 µM
[1]; oral, doses of 333–2130 mg
  unbound steady-state plasma concentration (Cmax,u): 2 to 5 µM
PEPT1
  inhibition of substrate transport via PEPT1: did not inhibit
PAT1
  inhibition of substrate transport via PAT1: did not inhibit
EAAT1
  inhibition of substrate transport via EAAT1: did not inhibit
OATP2B1
  inhibition of substrate transport via OATP2B1: did not inhibit
HEK293-Flp-In mock cells; 0.02 µM [3H]-E3S, 200 µM E3S, 300 µM or 0.2–1022 µM probenecid, 10,000 µM acamprosate, Lab. 2
  effect on uptake of [3H]-E3S in mock cells: did not affect
HEK293-Flp-In mock cells; 9.5 µM [14C]-PAH, 200 µM PAH, 300 µM or 0.02–1022 µM probenecid, acamprosate, Lab. 1
  effect on uptake of [14C]-PAH in mock cells: did not inhibit
HEK293-Flp-In mock cells; same substrate concentrations as in transfected cells, acamprosate 0.33–3300 µM
  saturability of dose-dependent substrate uptake in mock cells: not saturable
